Reference: PMC6472001, “Phenolic Compounds from Humulus lupulus as Natural Antimicrobial Products: New Weapons in the Fight against Methicillin Resistant Staphylococcus aureus, Leishmania mexicana and Trypanosoma brucei Strains” (Molecules, 2019)

What was measured:
Type in all cases: cell-based
[1] = system: Staphylococcus warneri T12A12; assay: First screening, agar dilution MIC
Procedure: (§1) Clinical bacterial isolates from human samples collected in Lille (France) and some collection strains were used. The first screening step on pathogenic bacteria was carried out with crude hydro-alcoholic extracts of different hop parts (Table 1). The second screening was performed using sub-extracts of cones on Gram-positive bacteria, including methicillin-sensitive Staphylococcus aureus (MSSA) and methicillin-resistant Staphylococcus aureus […] (Table 2). These tests were carried out on Petri dishes, Mueller-Hinton Agar (MHA) (Oxoid, UK) was mixed with the plant extract solution in MeOH at 5% (solvent control: 5% MeOH). Final extract concentrations in Petri dishes ranged from 1250 to 4.9 µg/mL. A multi-headed inoculator allowed spotting bacterial strains at 10^5 CFU/mL in cysteinated Ringer (CR) solution (Merck®, France). Minimal Inhibitory Concentrations (MICs) were visually determined after 24 h of incubation at 37 °C.

Salmonella sp. 11033 = assay: First screening, agar dilution MIC
Procedure: as §1

[2] = system: Mycobacterium smegmatis 5003; assay: First screening, agar dilution MIC
Procedure: as §1

[3] = system: Stenotrophomonas maltophilia; assay: First screening, agar dilution MIC
Procedure: as §1

Enterococcus sp. 8153 = assay: First screening, agar dilution MIC
Procedure: as §1

[4] = system: Staphylococcus aureus 8147; assay: First screening, agar dilution MIC
Procedure: as §1

Escherichia coli 8157 = assay: First screening, agar dilution MIC
Procedure: as §1

[5] = system: Staphylococcus aureus 8146; assay: First screening, agar dilution MIC
Procedure: as §1

Escherichia coli 8138 = assay: First screening, agar dilution MIC
Procedure: as §1

[6] = system: Streptococcus agalactiae T25-7; assay: First screening, agar dilution MIC
Procedure: as §1

[7] = system: Klebsiella pneumoniae 11017; assay: First screening, agar dilution MIC
Procedure: as §1

[8] = system: Staphylococcus epidermidis 10282; assay: First screening, agar dilution MIC
Procedure: as §1

[9] = system: Serratia marcescens 11056; assay: First screening, agar dilution MIC
Procedure: as §1

[10] = system: Enterobacter cloacae 11053; assay: First screening, agar dilution MIC
Procedure: as §1

[11] = system: Serratia marcescens 11057; assay: First screening, agar dilution MIC
Procedure: as §1

[12] = system: Citrobacter freundii 11041; assay: First screening, agar dilution MIC
Procedure: as §1

[13] = system: Pseudomonas aeruginosa ATCC 27583; assay: First screening, agar dilution MIC
Procedure: as §1

[14] = system: Klebsiella pneumoniae 11016; assay: First screening, agar dilution MIC
Procedure: as §1

[15] = system: Streptococcus agalactiae T53C2; assay: First screening, agar dilution MIC
Procedure: as §1

[16] = system: Acinetobacter baumannii 9011; assay: First screening, agar dilution MIC
Procedure: as §1

[17] = system: Pseudomonas aeruginosa 8131; assay: First screening, agar dilution MIC
Procedure: as §1

[18] = system: Enterobacter cloacae 11050; assay: First screening, agar dilution MIC
Procedure: as §1

[19] = system: Staphylococcus epidermidis 5001; assay: First screening, agar dilution MIC
Procedure: as §1

[20] = system: Streptococcus dysgalactiae T46C14; assay: First screening, agar dilution MIC
Procedure: as §1

[21] = system: Acinetobacter baumannii 9010; assay: First screening, agar dilution MIC
Procedure: as §1

Proteus mirabilis 11060 = assay: First screening, agar dilution MIC
Procedure: as §1

Corynebacterium T25-17 [22] = assay: First screening, agar dilution MIC
Procedure: as §1

[23] = system: Escherichia coli ATCC 25922; assay: First screening, agar dilution MIC
Procedure: as §1

[24] = system: Providencia stuartii 11038; assay: First screening, agar dilution MIC
Procedure: as §1

[25] = system: Citrobacter freundii 11042; assay: First screening, agar dilution MIC
Procedure: as §1

[26] = system: Enterobacter cloacae 11051; assay: First screening, agar dilution MIC
Procedure: as §1

[27] = system: Staphylococcus lugdunensis T26A3; assay: First screening, agar dilution MIC
Procedure: as §1

[28] = system: Enterococcus faecalis C159-6; assay: First screening, agar dilution MIC
Procedure: as §1

[29] = system: Staphylococcus aureus T6.7; assay: Second screening, agar dilution MIC
Procedure: as §1

[30] = system: Enterococcus faecalis T34-2; assay: Second screening, agar dilution MIC
Procedure: as §1

[31] = system: Staphylococcus aureus 8147; assay: Second screening, agar dilution MIC; details: Table 2
Procedure: as §1

[32] = system: Enterococcus faecalis T26-B7; assay: Second screening, agar dilution MIC
Procedure: as §1

[33] = system: Streptococcus agalactiae 13225; assay: Second screening, agar dilution MIC
Procedure: as §1

[34] = system: Streptococcus agalactiae T25.7; assay: Second screening, agar dilution MIC
Procedure: as §1

[35] = system: Staphylococcus aureus T26A4; assay: Second screening, agar dilution MIC
Procedure: as §1

[36] = system: Streptococcus agalactiae 13226; assay: Second screening, agar dilution MIC
Procedure: as §1

[37] = system: Staphylococcus aureus T1.1; assay: Second screening, agar dilution MIC
Procedure: as §1

[38] = system: Streptococcus agalactiae T38.2; assay: Second screening, agar dilution MIC
Procedure: as §1

[39] = system: Staphylococcus aureus T25.9; assay: Second screening, agar dilution MIC
Procedure: as §1

[40] = system: Staphylococcus aureus T47A12; assay: Second screening, agar dilution MIC
Procedure: as §1

[41] = system: Staphylococcus aureus CIP 224; assay: Second screening, agar dilution MIC
Procedure: as §1

[42] = system: Staphylococcus epidermidis 5001; assay: Second screening, agar dilution MIC; details: Table 2
Procedure: as §1

[43] = system: Enterococcus faecalis T39-C11; assay: Second screening, agar dilution MIC
Procedure: as §1

[44] = system: Staphylococcus aureus T36B1; assay: Second screening, agar dilution MIC
Procedure: as §1

[45] = system: Staphylococcus aureus T25.3; assay: Second screening, agar dilution MIC
Procedure: as §1

[46] = system: Staphylococcus aureus T28.1; assay: Second screening, agar dilution MIC
Procedure: as §1

Corynebacterium T25-17 [47] = assay: Second screening, agar dilution MIC; details: Table 2
Procedure: as §1

[48] = system: Streptococcus agalactiae T40A2; assay: Second screening, agar dilution MIC
Procedure: as §1

[49] = system: Staphylococcus saprophyticus 08237; assay: Second screening, agar dilution MIC
Procedure: as §1

[50] = system: Staphylococcus aureus T25.10; assay: Second screening, agar dilution MIC
Procedure: as §1

[51] = system: Enterococcus faecalis T37A4; assay: Second screening, agar dilution MIC
Procedure: as §1

[52] = system: Staphylococcus lugdunensis T26A3; assay: Second screening, agar dilution MIC; details: Table 2
Procedure: as §1

[53] = system: Staphylococcus pettenkoferi T3.3; assay: Second screening, agar dilution MIC
Procedure: as §1

Measured: Susceptibility to AMX

CC1(C)S[C@@H]2[C@H](NC(=O)[C@H](N)c3ccc(O)cc3)C(=O)N2[C@H]1C(=O)O [AMX, Amoxicillin]
I: [5] | [23]
R (R > 16): Salmonella sp. 11033 | [3] | Escherichia coli 8157 | Escherichia coli 8138 | [7] | [9] | [10] | [11] | [13] | [14] | [16] | [17] | [18] | [21] | Proteus mirabilis 11060 | [25] | [26] | [28] | [29] | [39] | [40] | [44] | [45] | [46] | [50]
S (Amoxicillin (AMX) S ≤ 4): all other assays above
